For assay [1], the target named is T1, Type-2 angiotensin II receptor (Rattus norvegicus, UniProt P35351).
T1 sequence (P35351 whole entry): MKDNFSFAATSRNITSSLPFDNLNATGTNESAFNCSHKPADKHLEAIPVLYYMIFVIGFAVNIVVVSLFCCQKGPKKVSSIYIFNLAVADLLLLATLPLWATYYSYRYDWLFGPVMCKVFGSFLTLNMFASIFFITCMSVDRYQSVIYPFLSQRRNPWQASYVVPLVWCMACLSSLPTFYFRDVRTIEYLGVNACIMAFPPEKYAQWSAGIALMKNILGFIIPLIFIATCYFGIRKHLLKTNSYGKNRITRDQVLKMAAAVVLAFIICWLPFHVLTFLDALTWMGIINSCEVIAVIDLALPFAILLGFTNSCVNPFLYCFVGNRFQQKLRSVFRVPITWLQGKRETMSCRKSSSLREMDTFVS
Kind of assay: Inhibition of rat AT2 receptor.

Assay [2] addresses T2, Type-1 angiotensin II receptor A (Rattus norvegicus, UniProt P25095).
T2 sequence (P25095 whole entry): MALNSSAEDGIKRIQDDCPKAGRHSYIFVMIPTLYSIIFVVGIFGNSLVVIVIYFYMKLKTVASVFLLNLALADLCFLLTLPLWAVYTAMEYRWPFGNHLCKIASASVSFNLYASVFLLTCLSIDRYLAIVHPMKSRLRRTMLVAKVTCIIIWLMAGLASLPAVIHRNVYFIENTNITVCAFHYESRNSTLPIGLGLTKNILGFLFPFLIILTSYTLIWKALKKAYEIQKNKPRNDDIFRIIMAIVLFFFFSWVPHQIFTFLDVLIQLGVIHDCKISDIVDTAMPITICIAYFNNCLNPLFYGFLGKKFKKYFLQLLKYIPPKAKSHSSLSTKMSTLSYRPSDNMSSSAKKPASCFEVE
Nature of the assay: Inhibition of rat AT1 receptor.

The target in assay [3] is T2, Type-1 angiotensin II receptor A. Nature of the assay: Displacement of [125I]Ang II from AT1 receptor in rat liver membranes. It is filed as cell membranes.
Assay [4] is described as follows: Displacement of [125I]Ang II from AT2 receptor in pig uterus membranes. It is filed as cell membranes, Sus scrofa. For orientation: Loss of bound radioactivity is the signal in a displacement assay; it reports binding, not function.
The target of assay [5] is T3, Type-1 angiotensin II receptor (Homo sapiens, UniProt P30556).
T3 sequence (P30556 whole entry): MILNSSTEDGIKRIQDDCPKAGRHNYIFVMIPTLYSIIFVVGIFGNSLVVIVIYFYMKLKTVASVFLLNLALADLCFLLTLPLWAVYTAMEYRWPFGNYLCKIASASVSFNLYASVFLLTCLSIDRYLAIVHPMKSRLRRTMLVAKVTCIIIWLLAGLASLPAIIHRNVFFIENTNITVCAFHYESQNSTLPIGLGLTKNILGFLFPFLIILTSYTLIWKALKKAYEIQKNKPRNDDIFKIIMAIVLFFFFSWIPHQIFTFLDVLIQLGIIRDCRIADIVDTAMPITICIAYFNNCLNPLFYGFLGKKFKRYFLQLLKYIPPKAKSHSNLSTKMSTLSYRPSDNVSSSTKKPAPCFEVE
Nature of the assay: Inhibition of human AT1 receptor.

Assay [6] deals with T4, Proto-oncogene Mas (Homo sapiens, UniProt P04201).
T4 sequence (P04201 whole entry): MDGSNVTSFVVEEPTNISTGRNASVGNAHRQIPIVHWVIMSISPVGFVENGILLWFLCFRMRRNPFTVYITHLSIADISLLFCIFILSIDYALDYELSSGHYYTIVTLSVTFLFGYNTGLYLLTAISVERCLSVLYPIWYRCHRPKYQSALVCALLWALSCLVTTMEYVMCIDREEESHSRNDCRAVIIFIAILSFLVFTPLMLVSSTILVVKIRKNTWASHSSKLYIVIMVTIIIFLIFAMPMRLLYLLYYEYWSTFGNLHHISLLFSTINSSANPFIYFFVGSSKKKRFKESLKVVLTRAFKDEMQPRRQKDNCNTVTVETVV
Nature of the assay: Agonist activity at N-terminal c-Myc tagged human MasR expressed in HEK293T cells assessed as reduction in forskolin-induced cAMP accumulation. It is filed as functional, cell-based. A general note: Changes in cAMP serve as a functional read-out for many G protein-coupled receptors.

The target of assay [7] is T4, Proto-oncogene Mas. Kind of assay: Antagonist activity at N-terminal c-Myc tagged human MasR expressed in HEK293T cells by cAMP accumulation based assay. It is filed as functional, cell-based.
Assay [8] addresses T2, Type-1 angiotensin II receptor A. Kind of assay: Displacement of [125I]Ang II from AT1 receptor in rat SMC membranes incubated for 60 mins by gamma counting method. It is filed as cell membranes.

Where a SMILES comes first, the peptide text is derived from it. Where only a bound is given, the exact number is not on record here.

As usually defined, the IC50 is the point on the concentration scale where inhibition reaches its midpoint. Take `COc1ccc2c(c1OCc1ccccc1)CC(C(=O)O)N(C(=O)C(c1ccccc1)c1ccccc1)C2` (stereo not drawn): the values for the IC50 in assay [1] and in assay [2] were 0.0752 µM and 2900 µM, respectively.
By Ki is commonly meant a dissociation constant, usually derived from enzyme kinetics or from competition with a known ligand. Low values mean a stronger hold on the target, high ones a looser hold on the target. As for `CCCCOC(=O)NS(=O)(=O)c1sc(CC(C)C)cc1-c1ccc(Cn2c(CC)nc3c(C)cc(C)nc32)cc1`, the Ki in assay [3] came out at 0.0039 µM; in assay [4] it was 0.0028 µM.
As for `CCCCOC(=O)NS(=O)(=O)c1ccc(Cc2cccc(OC)c2)cc1-c1ccc(Cn2c(CC)nc3c(C)cc(C)nc32)cc1`, the IC50 in assay [3] was found to be 0.0014 µM; in assay [4] it was 0.101 µM.
In assay [5], `Cc1cc(Cn2cnc3c2C[C@@H](C(=O)O)N(C(=O)C(c2ccccc2)c2ccccc2)C3)ccc1N(C)C` gave a Ki of 0.012 µM.
Turning to `CCNC(=O)NS(=O)(=O)c1sc(CC(C)C)cc1-c1ccc(Cn2c(-c3ccccc3)nc(OC)c2C=O)cc1`, at Proto-oncogene Mas [6], the IC50 came to 0.021 µM.
Regarding `COc1ccc2c(c1OCc1ccccc1)C[C@H](C(=O)O)N(C(=O)C(c1ccccc1)c1ccccc1)C2`, the IC50 in assay [5] turned out to be 1.1 µM.
The molecule `CC[C@H](C)[C@H](NC(=O)[C@H](Cc1ccc(O)cc1)NC(=O)[C@@H](NC(=O)[C@H](CCCNC(=N)N)NC(=O)[C@@H](N)CC(=O)O)C(C)C)C(=O)N[C@@H](Cc1cnc[nH]1)C(=O)N[C@H](C)C(=O)O` (HELM PEPTIDE1{D.R.V.Y.I.H.[dA]}$$$$V2.0) showed an IC50 on Proto-oncogene Mas [7] of 0.0003 µM.
Turning to `CC[C@H](C)[C@H](NC(=O)[C@@H]1CCCN1C(=O)[C@H](Cc1c[nH]cn1)NC(=O)[C@H](CCCCNC(=O)[C@H](CCCN=C(N)N)NC(=O)OCc1ccccc1)NC(=O)[C@H](Cc1ccc(O)cc1)NC(=O)c1cccnc1)C(=O)O` (HELM PEPTIDE1{[O=C(c1cccnc1)[*:2]].Y.K.H.P.I}|PEPTIDE2{[O=C(OCc1ccccc1)[*:2]].R}$PEPTIDE1,PEPTIDE2,3:R3-2:R2$$$V2.0), the Ki in assay [8] was determined as 1.7 µM.
For `CCCCOC(=O)NS(=O)(=O)c1sc(CC(C)C)cc1-c1ccc(Cn2ccnc2)cc1` [BULOXIBUTID], in assay [3], the Ki is greater than 10 µM.
For `COc1ccc2c(c1OCc1ccccc1)C[C@@H](C(=O)O)N(C(=O)C(c1ccccc1)c1ccccc1)C2` [OLODANRIGAN], the IC50 in assay [5] was 0.039 µM.

The values are drawn from ChEMBL document CHEMBL4354850, “The Other Angiotensin II Receptor: AT2R as a Therapeutic Target” (J Med Chem, 2020).
